What was measured:
[1] = target: T1, NIK (Mus musculus, UniProt Q9WUL6); assay: BAFF-induced NIK activation in B cells (Western blotting, phospho-NIK); type: cell-based
T1 construct: Proteins were extracted with cell lysate and used as samples; endogenous in cells; host or cells: primary splenic B cells from 6-week-old male Balb/c mice
Method: (§1) Spleens were harvested from 6-week-old male Balb/c mice and B cells were isolated. After isolation, the cells were seeded in […] dish and cultured in RPMI 1640 medium for 1 day and used as control. In addition, B cells were seeded into 100 mm^2 dish, and after 1 day of culture, 100 ng/mL BAFF was added and cultured for 1 h. Furthermore, B cells were seeded in […] dish, and after 1 day of culture, 100 μM mangiferin, 10 μM mangiferin 8a, 10 μM norathyriol, 20 μM 1,3,5,6-tetrahydroxyxanthone, 10 μM xanthohydrol, 10 μM of α-mangostin, and 10 μM of γ-mangostin were added to B cells, and after 23 h, 100 ng/mL BAFF was added to each, and the cells were incubated for 1 h. All were incubated at 37° C. and 5% CO2.
(§2) Proteins were extracted with cell lysate and used as samples. Each sample was transferred to a PVDF membrane after SDSPAGE and assayed with anti-phospho-NIK, anti-NIK, anti-NF-κB p52, anti-NF-κB p65 and anti-Lamin antibodies.
(§3) The antibody species is indicated in the vertical direction. Specifically, in the case of anti-phospho-NIK antibody (described as “Phospho-NIK”), anti-NIK antibody (described as “NIK”), anti-NF-κB p52 antibody (described as “NF-κB p52 nuclear”), anti-NF-κB p65 antibody (described as “NF-κB p65 nuclear”) and anti-Lamin antibody (described as “Lamin”).

[2] = system: NF-κB p52; assay: LPS-stimulated B cells, nuclear NF-κB p52 (Western blotting); type: cell-based, mouse; conditions: 10 μM compound; vs 10 μg/mL LPS
Method: as §1, with “10 μg/mL LPS” for “100 ng/mL BAFF”, “culture,” for “culture, 100 μM mangiferin,”, “8a” for “8a, 10 μM norathyriol, 20 μM 1,3,5,6-tetrahydroxyxanthone, 10 μM xanthohydrol, 10 μM of α-mangostin,”, “norathyriol” for “of γ-mangostin”
as §2, §3

[3] = system: Balb/c mice with atopic dermatitis (MC903 applied to the auricle); assay: Auricular swelling in MC903-induced atopic dermatitis mice; type: in vivo, mouse
Method: (§4) MC903 at 2 nM was applied to the right auricle of a 6-week-old male Balb/c (Japan SLC Inc.). Starting 8 h later, 5% norathyriol aqueous solution (1 mL of ethanol containing […] of norathyriol), betamethasone ointment, and delgocitinib ointment were applied to the auricle for 7 days. The measurement of auricular skin swelling was calculated by calipers. The day on which the first application of the compound was made was defined as day 0. Betamethasone and delgocitinib are currently in clinical use in atopic dermatitis and were used as control drugs in this example.
Those without MC903 or norathyriol are called the control group, those with MC903 are called the vehicle group, those with 5% norathyriol aqueous are called the 5% norathyriol-applied group, those with betamethasone ointment are called the betamethasone-applied group, and those with delgocitinib ointment is referred to as the delgocitinib-applied group.
Solid white circles indicate the control group (labeled “control”). Solid black squares indicate the vehicle group (labeled “vehicle”), dotted black diamonds indicate the 5% norathyriol aqueous application group (labeled “MC903+5% norathyriol”), dashed black crosses indicate the betamethasone application group (labeled “MC903+betamethasone ointment”), and single-dotted black dots indicate the delgocitinib application group (labeled “MC903+delgocitinib ointment”).

[4] = system: B cells collected from mice; assay: BAFF-induced differentiation into mature B cells (IgM/IgD flow cytometry); type: cell-based, mouse; conditions: 100 ng/mL BAFF, 10 days, 100 μM mangiferin, 20 μM 1,3,5,6-tetrahydroxyxanthone, 10 μM others
Method: B cells collected from mice were cultured in RPMI 1640 medium for 1 day. Then, 100 μM mangiferin, 10 μM mangiferin 8a, 10 μM norathyriol, 20 μM 1,3,5,6-tetrahydroxyxanthone, 10 μM xanthohydrol, 10 μM α-mangostin, 10 μM of γ-mangostin were added to B cell, and after 1 day of culture, 100 ng/mL of BAFF was added, followed by 10 days of culture. After 10 days of culture, cells were stained with anti-IgM and anti-IgD antibodies, markers of B cells, and the expression of IgM and IgD was measured using BD LSRFortessa. Note that IgM negative and IgD negative indicates pre-B cells, IgM positive and IgD negative indicates immature B cells, and IgM positive and IgD positive indicates mature B cells.

[5] = system: B cells collected from mice; assay: LPS-induced differentiation into plasma cells (CD138 flow cytometry); type: cell-based, mouse; conditions: 10 μM compound, 10 μg/mL LPS, 10 days; vs LPS-added group
Method: B cells collected from mice were cultured in RPMI 1640 medium for 1 day. Then, 10 μM mangiferin 8a and 10 μM norathyriol were added to B cell, and after 1 day of culture, 10 μg/mL of LPS was added, followed by 10 days of culture. After 10 days of culture, cells were stained with anti-CD138 antibody, a marker of plasma cells, and CD138 expression was measured using BD LSRFortessa.

[6] = system: IL-4; assay: Auricular tissue IL-4 ELISA, atopic dermatitis mice; type: in vivo, mouse; conditions: day 7, topical application, control 56, vehicle 152
Method: as §4
The mouse IL-4 ELISA kit (R&D) was used for this measurement.

[7] = system: mouse macrophages; assay: LPS-stimulated macrophage proliferation (trypan blue); type: cell-based; conditions: 10 μM compound, 10 μg/mL LPS 3 days, control 10.65×10^4, LPS 19×10^4
Method: The inhibitory effect of the compound on macrophage cell proliferation was examined using mouse macrophages.
Macrophages collected from mice were cultured in RPMI 1640 medium for 1 day. Then, 10 μM mangiferin 8a and 10 μM norathyriol were added to macrophages, and after 1 day of culture, 10 μg/mL of lipopolysaccharide (LPS) was added to each for 3 days. After 3 days of incubation, the number of viable cells was determined by the trypan blue dye method. Note that LPS was used as an allergic inflammation inducer.
Referring to FIG. 49, the horizontal axis indicates treatment with each compound and the vertical axis indicates cell count (1×10^4 cells/mL). Only 0.5% DMSO in PBS, which was used to dissolve the reagent (compound), was added as control. The LPS group is referred to as the LPS group with 10 μg/mL LPS, the mangiferin 8a group is referred to as the mangiferin 8a group with LPS and mangiferin 8a, and the norathyriol group is referred to as the norathyriol group with LPS and norathyriol.

T1 sequence (Q9WUL6 whole entry): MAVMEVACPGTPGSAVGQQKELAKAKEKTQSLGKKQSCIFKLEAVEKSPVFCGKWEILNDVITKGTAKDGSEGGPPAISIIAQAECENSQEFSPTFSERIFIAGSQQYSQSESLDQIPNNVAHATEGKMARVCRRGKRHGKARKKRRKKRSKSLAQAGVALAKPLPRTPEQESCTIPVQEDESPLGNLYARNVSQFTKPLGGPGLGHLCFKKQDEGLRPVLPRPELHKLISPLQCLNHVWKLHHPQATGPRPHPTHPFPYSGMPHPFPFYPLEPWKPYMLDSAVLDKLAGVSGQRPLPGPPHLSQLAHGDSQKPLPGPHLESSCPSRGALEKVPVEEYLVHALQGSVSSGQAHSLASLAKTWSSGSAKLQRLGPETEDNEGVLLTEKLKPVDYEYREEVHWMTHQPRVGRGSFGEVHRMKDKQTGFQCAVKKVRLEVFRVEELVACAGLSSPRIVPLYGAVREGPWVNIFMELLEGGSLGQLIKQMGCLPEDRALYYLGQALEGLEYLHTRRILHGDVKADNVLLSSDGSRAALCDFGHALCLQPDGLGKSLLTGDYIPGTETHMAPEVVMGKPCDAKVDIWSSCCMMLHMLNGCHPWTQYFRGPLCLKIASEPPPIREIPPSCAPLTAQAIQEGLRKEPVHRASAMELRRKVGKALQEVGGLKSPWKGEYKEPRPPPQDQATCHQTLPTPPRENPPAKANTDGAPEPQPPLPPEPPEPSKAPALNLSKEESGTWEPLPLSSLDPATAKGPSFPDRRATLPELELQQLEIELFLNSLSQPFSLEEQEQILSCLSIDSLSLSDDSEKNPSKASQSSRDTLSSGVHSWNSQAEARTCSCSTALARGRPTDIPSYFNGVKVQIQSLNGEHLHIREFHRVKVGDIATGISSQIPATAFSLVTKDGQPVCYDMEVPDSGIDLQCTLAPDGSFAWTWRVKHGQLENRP

O=c1c2cc(O)c(O)cc2oc2cc(O)cc(O)c12 [norathyriol, 1,3,6,7-tetrahydroxyxanthone]
phospho-NIK band (immunoblotting) ([1]; 100 ng/mL BAFF 1 h after 23 h compound, 100 μM mangiferin, 20 μM 1,3,5,6-tetrahydroxyxanthone, 10 μM others): fainter | inhibition of NIK activity compared with mangiferin ([1]; general statement in the description, referring to the examples): more inhibition of NIK activity than mangiferin | nuclear NF-κB p52 band (immunoblotting) [2]: fainter | auricular skin swelling ([3]; male Balb/c, MC903 on right auricle, 5% norathyriol aqueous solution, betamethasone ointment or delgocitinib ointment applied to auricle for 7 days, vs vehicle group): swelling was significantly reduced | swelling and redness of auricular skin (photograph) ([3]; right auricle at day 7, topical 5% norathyriol aqueous, betamethasone ointment, delgocitinib ointment): showed some redness, but not as much as in the target group | population IgM positive and IgD positive (mature B cells) ([4]; control 0, BAFF only 45.6): 0.062% | population IgM positive and IgD negative (immature B cells) ([4]; control 0.529, BAFF only 42.3): 1.46% | population IgM negative and IgD negative (pre-B cells) ([4]; control 99.5, BAFF only 11.7): 98.5% | CD138 expression [5]: significantly decreased CD138 expression | IL-4 secretion [6]: 94 pg/mL | number of viable cells (cell count) [7]: 7.5×10^4 cells/mL

From patent US20260007634A1, “PHARMACEUTICAL COMPOSITIONS FOR THE TREATMENT OF ALLERGIC DISEASES” (KINKI UNIVERSITY, priority 2022, published 2026)
